The target of the first data set is T1, Cys12 of the KRAS 4B G12C protein (Homo sapiens, UniProt P01116, G12C).
T1 construct: This protein contained 188 amino acids in total, including an N-terminal 6-Histidine tag; made in house; host or cells: E. coli BL21
The experiment in a line: In vitro covalent adduct formation (CAF) assay, LC-MS intact mass. In kind it is binding. Conditions: 10 uM compound, 60 min. The procedure, abridged: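 GDP-loaded (>95%) His-TEV-tagged KRAS 4B G12C (residues 1–169), 5 μM in TBS pH 7.4, incubated with 10 μM compound (4% DMSO) at 22° C for one hour. Intact-protein LC-MS gave free:adduct ratios, reported as percent protein modified; duplicate runs.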
On to `C=CC(=O)N1[C@H](C)CN(c2nc(=O)n3c4c(c(-c5cc(Br)c(F)cc5F)c(C(F)(F)F)cc24)SCC2(COC2)C3)C[C@@H]1C` [Example 1452, 8′-((3S,5R)-4-acryloyl-3,5-dimethylpiperazin-1-yl)-11′-(5-bromo-2,4-difluorophenyl)-10′-(trifluoromethyl)-2′H,4′H,6′H-spiro[oxetane-3,3′-[1,4]thiazepino[2,3,4-ij]quinazolin]-6′-one], for which the “% CAF 10 uM @ 60 min” value is on record as 97%. The same measure, in the same setting: the result for `C=CC(=O)N1C[C@H](C)N(c2nc(=O)n3c4c(c(-c5cc(O)c(F)cc5F)c(C(F)(F)F)cc24)SCC2(COC2)C3)C[C@H]1C` [Example 1454, 8′-((2S,5R)-4-acryloyl-2,5-dimethylpiperazin-1-yl)-11′-(2,4-difluoro-5-hydroxyphenyl)-10′-(trifluoromethyl)-2′H,4′H,6′H-spiro[oxetane-3,3′-[1,4]thiazepino[2,3,4-ij]quinazolin]-6′-one] reads 92%; that for `C=CC(=O)N1C[C@H](C)N(c2nc(=O)n3c4c(c(-c5cc(Br)c(F)cc5F)c(C(F)(F)F)cc24)SCC2(CCOCC2)C3)C[C@H]1C` [Example 1455, 8′-((2S,5R)-4-Acryloyl-2,5-dimethylpiperazin-1-yl)-11′-(5-bromo-2,4-difluorophenyl)-10′-(trifluoromethyl)-2,3,5,6-tetrahydro-2′H,4′H,6′H-spiro[pyran-4,3′-[1,4]thiazepino[2,3-4-ij]quinazolin]-6′-one], 66%; that for “(3S,10R)-7-((2S,5R)-4-acryloyl-2,5-dimethylpiperazin-1-yl)-10-(5-chloro-2,4-difluorophenyl)-3-((4-cyclopropylpiperazin-1-yl)methyl)-9-(trifluoromethyl)-2,3-dihydro-5H-[1,4]thiazino[2,3,4-ij]quinazolin-5-one [Example 1360]”, 92.8%.

On to “(3S,10S)-7-((2S,5R)-4-acryloyl-2,5-dimethylpiperazin-1-yl)-10-(5-chloro-2,4-difluorophenyl)-3-((4-cyclopropylpiperazin-1-yl)methyl)-9-(trifluoromethyl)-2,3-dihydro-5H-[1,4]thiazino[2,3,4-ij]quinazolin-5-one [Example 1361]”, for which the “% CAF 10 uM @ 60 min” value worked out at 29.8%.

System in another data set: not listed separately
The data set is described as follows: Determination of total drug concentration in rat brain (BBB penetration). The settings on record: male SD rat, 2 mg/kg IV infusion for 4 hours, brain collected at end of 4 hours. In kind it is in vivo. As for the experimental part: BB. Example 9: Determination of Total Drug Concentration in Rat Brain
In Vivo Experimental Procedures
Infuse male SD rat at 2 mg/kg dose for 4 hours through IV administration route. Collect brain tissues at the end of 4 hours.
Sample Preparation Procedures
Dilute brain tissue by adding homogenization solvent (1:4, w/v). Homogenize diluted brain tissue samples. Extract analyte by adding organic solvent (1:4, v/v) with spiked internal standard. Vortex and centrifuge the samples. Remove supernatant and dilute with HPLC compatible solvent (1:3, v/v).
Inject diluted extract into LC-MS/MS system using reversed phase high performance liquid chromatography coupled with electrospray ionization and selected reaction monitoring. Determine the total drug concentration in brain samples by quantitating against the standard curve prepared using the same matrix.
The following data provides blood brain barrier (BBB) penetration activity for a selection of inventive compounds where were directly compared to sotorasib and adagrasib (concentration in brain measured in ng/g).
Compounds that were measured as having a total concentration in the brain of at least 60 ng/g are indicated as “+”.
As to `C=CC(=O)N1C[C@H](C)N(c2nc(=O)n3c4c(c(-c5ccc(F)cc5F)c(C(F)(F)F)cc24)SC[C@@H]3COC)C[C@H]1C` (atropisomer, axis not shown) [Example 13-1], the BBB activity entry is on record as “+ (Compounds that were measured as having a total concentration in the brain of at least 60 ng/g are indicated as “+”)”. The same measure, in the same setting: for `C=CC(=O)N1[C@H](C)CN(c2nc(=O)n3c4c(c(-c5cc(Cl)c(F)cc5F)c(C(F)(F)F)cc24)SC[C@@H]3COC)C[C@@H]1C` (atropisomer, axis not shown) [Example 13-2] the value was “+ (Compounds that were measured as having a total concentration in the brain of at least 60 ng/g are indicated as “+”)”. Same read-out and setting: for `C=CC(=O)N1[C@H](C)CN(c2nc(=O)n3c4c(c(-c5ccc(Cl)cc5F)c(C(F)(F)F)cc24)SC[C@@H]3COC)C[C@@H]1C` (atropisomer, axis not shown) [Example 13-3] the value was “+ (Compounds that were measured as having a total concentration in the brain of at least 60 ng/g are indicated as “+”)”; for `C=CC(=O)N1[C@H](C)CN(c2nc(=O)n3c4c(c(-c5cc(Br)c(F)cc5F)c(C(F)(F)F)cc24)SC[C@@H]3COC)C[C@@H]1C` (atropisomer, axis not shown) [Example 13-4], “+ (Compounds that were measured as having a total concentration in the brain of at least 60 ng/g are indicated as “+”)”. For the molecule `C=CC(=O)N1[C@H](C)CN(c2nc(=O)n3c4c(c(-c5cc(Br)c(F)cc5F)c(C(F)(F)F)cc24)SC[C@@H]3CC)C[C@@H]1C` (atropisomer, axis not shown) [Example 13-6], the BBB activity entry is reported as “+ (Compounds that were measured as having a total concentration in the brain of at least 60 ng/g are indicated as “+”)”.

With `C=CC(=O)N1CCN(c2nc(=O)n3c4c(c(-c5cc(Cl)c(F)cc5F)c(C(F)(F)F)cc24)SC[C@@H]3COC)CC1` (atropisomer, axis not shown) [Example 13-7], the BBB activity entry is recorded as “+ (Compounds that were measured as having a total concentration in the brain of at least 60 ng/g are indicated as “+”)”. Still for that read-out and setting: the result for `C=CC(=O)N1[C@H](C)CN(c2nc(=O)n3c4c(c(-c5cc(Cl)c(F)cc5F)c(C(F)(F)F)cc24)SC[C@@H]3CC)C[C@@H]1C` (atropisomer, axis not shown) [Example 13-8] reads “+ (Compounds that were measured as having a total concentration in the brain of at least 60 ng/g are indicated as “+”)”; that for `C=CC(=O)N1[C@H](C)CN(c2nc(=O)n3c4c(c(-c5cc(I)c(F)cc5F)c(C(F)(F)F)cc24)SC[C@@H]3COC)C[C@@H]1C` (atropisomer, axis not shown) [Example 13-12], “+ (Compounds that were measured as having a total concentration in the brain of at least 60 ng/g are indicated as “+”)”; that for `C=CC(=O)N1[C@H](C)CN(c2nc(=O)n3c4c(c(-c5ccc(F)cc5F)c(C(F)(F)F)cc24)SC[C@@H]3COC)C[C@@H]1C` (atropisomer, axis not shown) [Example 13-15], “+ (Compounds that were measured as having a total concentration in the brain of at least 60 ng/g are indicated as “+”)”. Still for that read-out and setting: for `C=CC(=O)N1CCN(c2nc(=O)n3c4c(c(-c5ccc(F)cc5F)c(C(F)(F)F)cc24)SC[C@@H]3COC)CC1` (atropisomer, axis not shown) [Example 13-17] the value was “+ (Compounds that were measured as having a total concentration in the brain of at least 60 ng/g are indicated as “+”)”; for `C=CC(=O)N1[C@H](C)CN(c2nc(=O)n3c4c(c(-c5cc(Cl)c(F)cc5F)c(C(F)(F)F)cc24)SC[C@@H](OC)C3)C[C@@H]1C` (atropisomer, axis not shown) [Example 13-39], “+ (Compounds that were measured as having a total concentration in the brain of at least 60 ng/g are indicated as “+”)”; for `C=CC(=O)N1[C@H](C)CN(c2nc(=O)n3c4c(c(-c5cc(Cl)c(F)cc5F)c(C(F)(F)F)cc24)SCC2(COC2)C3)C[C@@H]1C` (atropisomer, axis not shown) [Example 13-44], “+ (Compounds that were measured as having a total concentration in the brain of at least 60 ng/g are indicated as “+”)”.

Turning to `C=CC(=O)N1[C@H](C)CN(c2nc(=O)n3c4c(c(-c5ccc(F)cc5F)c(C(F)(F)F)cc24)SC[C@@H](OCC)C3)C[C@@H]1C` (atropisomer, axis not shown) [Example 13-52], the BBB activity result is on record as “− (Compounds that did not meet this threshold are indicated as “−”)”.

Regarding `C=CC(=O)N1[C@H](C)CN(c2nc(=O)n3c4c(c(-c5ccc(F)cc5F)c(C(F)(F)F)cc24)SC[C@@H](OCC)C3)C[C@@H]1C` (atropisomer, axis not shown) [Example 13-58], the BBB activity entry is listed as “− (Compounds that did not meet this threshold are indicated as “−”)”. For `C=CC(=O)N1[C@H](C)CN(c2nc(=O)n3c4c(c(-c5ccc(F)cc5F)c(C(F)(F)F)cc24)SC[C@@H]3COCOC)C[C@@H]1C` (atropisomer, axis not shown) [Example 13-60], the BBB activity entry is “− (Compounds that did not meet this threshold are indicated as “−”)”. On to `C=CC(=O)N1[C@H](C)CN(c2nc(=O)n3c4c(c(-c5cc(Cl)c(F)cc5F)c(C(F)(F)F)cc24)SC[C@@H]3COCOC)C[C@@H]1C` (atropisomer, axis not shown) [Example 13-62], for which the BBB activity entry is given as “− (Compounds that did not meet this threshold are indicated as “−”)”. Still for that read-out and setting: the result for `C=CC(=O)N1[C@H](C)CN(c2nc(=O)n3c4c(c(-c5cc(Br)c(F)cc5F)c(C(F)(F)F)cc24)SC[C@@H](OC)C3)C[C@@H]1C` (atropisomer, axis not shown) [Example 13-70] reads “− (Compounds that did not meet this threshold are indicated as “−”)”.

Regarding `C=CC(=O)N1C[C@H](C)N(c2nc(=O)n3c4c(c(-c5cc(Cl)c(F)cc5F)c(C(F)(F)F)cc24)SC[C@@H]3CN2C[C@@H]3C[C@H]2CO3)C[C@H]1C` (atropisomer, axis not shown) [Example 13-71], the BBB activity result is recorded as “− (Compounds that did not meet this threshold are indicated as “−”)”. The same measure, in the same setting: for `C=CC(=O)N1[C@H](C)CN(c2nc(=O)n3c4c(c(-c5cc(Cl)c(F)cc5F)c(C(F)(F)F)cc24)SC[C@@H](Nc2ncccn2)C3)C[C@@H]1C` (atropisomer, axis not shown) [Example 13-73] the value was “− (Compounds that did not meet this threshold are indicated as “−”)”; for `C=CC(=O)N1[C@H](C)CN(c2nc(=O)n3c4c(c(-c5cc(Cl)c(F)cc5F)c(C(F)(F)F)cc24)SC[C@@H](OCC)C3)C[C@@H]1C` (atropisomer, axis not shown) [Example 13-77], “− (Compounds that did not meet this threshold are indicated as “−”)”; for `C=CC(=O)N1CCN(c2nc(=O)n3c4c(c(-c5cc(Cl)c(F)cc5F)c(C(F)(F)F)cc24)SC[C@@H]3COC)CC1` [Example 13-5], “+ (Compounds that were measured as having a total concentration in the brain of at least 60 ng/g are indicated as “+”)”.

(Values after US20230107642A1 (Erasca, Inc., priority 2020, published 2023).)
